Measurements as given in patent publication US11369598B2, “Treatment of T-cell mediated diseases” (Ampio Pharmaceuticals, Inc., priority 2003, dated 2022).
Like-named read-outs stand apart in the source and are kept apart here.

Assays:
ERK1 = assay: Hypromatrix Array phosphorylation, TRiPS cell extracts; format: cell-based, human; set-up: key to ERK1 phosphorylation score: 0 (negative); + to ++++ (positive); + to ++++ (positive); + to ++++ (positive); + to ++++ (positive); details: 30 minutes at 37° C., 0.5 mM DA-DKP or 1:500 dilution of HC 2626
Protocol: (§1) The mechanism of action of DA-DKP and HC 2626 (containing MR-DKP) was investigated. […] After the incubation, the cells were lysed in Cell-Lytic Mammalian Cell Extraction Reagent (Sigma).
(§2) The cell extracts were then separately incubated with duplicate Hypromatrix Arrays for 2 hours at room temperature, followed by two washes following the manufacturer's (Hypromatrix) protocol. The Hypromatrix Array is a nylon membrane blotted with antibodies to the transcription factors listed in Table 1 (custom manufactured by Hypromatrix). An antibody cocktail specific for phosphorylated-tyrosine, phosphorylated-serine and phosphorylated-threonine (Zymed) was added, incubated for 1 hour. Then, an anti-immunoglobulin antibody labeled with biotin was added. After washing the anti-immunoglobulin-biotin away, streptavidin-peroxidase was added, and the arrays given a final wash before adding a peroxidase-reactive luminescent substrate.

c-jun = assay: as above; format: cell-based, human; set-up: key: 0 (negative); + to ++++ (positive); + to ++++ (positive); + to ++++ (positive); + to ++++ (positive); details: day 18 TRiPS cells + CD3/CD28 beads, 30 minutes at 37° C.; 0.5 mM DA-DKP or 1:500 dilution of HC 2626
Protocol: as §1, §2

Rap1 = assay: as above; format: cell-based, human; set-up: key: 0 (negative); + to ++++ (positive); + to ++++ (positive); + to ++++ (positive); + to ++++ (positive); details: day 18 TRiPS cells + CD3/CD28 beads, 30 minutes at 37° C.; 0.5 mM DA-DKP or 1:500 dilution of HC 2626
Protocol: as §1, §2

CBP = assay: as above; format: cell-based, human; set-up: key: 0 (negative); + to ++++ (positive); + to ++++ (positive); + to ++++ (positive); + to ++++ (positive); details: day 18 TRiPS cells + CD3/CD28 beads, 30 minutes at 37° C.; 0.5 mM DA-DKP or 1:500 dilution of HC 2626
Protocol: as §1, §2

fyn = assay: as above; format: cell-based, human; set-up: key: 0 (negative); + to ++++ (positive); + to ++++ (positive); + to ++++ (positive); + to ++++ (positive); details: day 18 TRiPS cells + CD3/CD28 beads, 30 minutes at 37° C.; 0.5 mM DA-DKP or 1:500 dilution of HC 2626
Protocol: as §1, §2

p38 MAPK = assay: as above; format: cell-based, human; set-up: key: 0 (negative); + to ++++ (positive); + to ++++ (positive); + to ++++ (positive); + to ++++ (positive); details: day 18 TRiPS cells + CD3/CD28 beads, 30 minutes at 37° C.; 0.5 mM DA-DKP or 1:500 dilution of HC 2626
Protocol: as §1, §2

pI3 kinase/p85 = assay: as above; format: cell-based, human; set-up: key: 0 (negative); + to ++++ (positive); + to ++++ (positive); + to ++++ (positive); + to ++++ (positive); details: day 18 TRiPS cells + CD3/CD28 beads, 30 minutes at 37° C.; 0.5 mM DA-DKP or 1:500 dilution of HC 2626
Protocol: as §1, §2

IκB-α = assay: as above; format: cell-based, human; set-up: key: 0 (negative); + to ++++ (positive); + to ++++ (positive); + to ++++ (positive); + to ++++ (positive); details: day 18 TRiPS cells + CD3/CD28 beads, 30 minutes at 37° C.; 0.5 mM DA-DKP or 1:500 dilution of HC 2626
Protocol: as §1, §2

csk = assay: as above; format: cell-based, human; set-up: key: 0 (negative); + to ++++ (positive); + to ++++ (positive); + to ++++ (positive); + to ++++ (positive); details: day 18 TRiPS cells + CD3/CD28 beads, 30 minutes at 37° C.; 0.5 mM DA-DKP or 1:500 dilution of HC 2626
Protocol: as §1, §2

Akt ½ = assay: as above; format: cell-based, human; set-up: key: 0 (negative); + to ++++ (positive); + to ++++ (positive); + to ++++ (positive); + to ++++ (positive); details: day 18 TRiPS cells + CD3/CD28 beads, 30 minutes at 37° C.; 0.5 mM DA-DKP or 1:500 dilution of HC 2626
Protocol: as §1, §2

[1] = 12 days after stimulation with anti-CD3 OKT3 antibody, 0.5 mM DA-DKP

Asp-Ala diketopiperazine [DA-DKP]
secretion of IL-16 from TriPS cells (FIG. 2) (TriPS cells; [1]): decreased
secretion of TNFα from TriPS cells (FIG. 2) (TriPS cells; [1]): decreased
release of pre-formed cytokines (TriPS cells; TRiPS cells): inhibited
effect on TNFα secretion from TriPS cells (FIG. 4) (TriPS cells; early in the stimulation cycle): inhibitory
effect on TNFα secretion from TriPS cells (FIG. 4) (TriPS cells; later in the cycle (day 14)): stimulatory
ERK1 phosphorylation score (ERK1; day 18 TRiPS cells + CD3/CD28 beads): +
cytokine transcriptional factor activation (ERK1/2) (ERK1; day 18 TRiPS cells, CD3/CD28 beads): inhibited
c-jun phosphorylation score (c-jun): +
Rap1 phosphorylation score (Rap1): ++
CBP phosphorylation score (CBP): ++
fyn phosphorylation score (fyn): +
p38 MAPK phosphorylation score (p38 MAPK): +++
pI3 kinase/p85 phosphorylation score (pI3 kinase/p85): +
IκB-α phosphorylation score (IκB-α): +
csk phosphorylation score (csk): +
Akt ½ phosphorylation score (Akt ½): +++
